What was measured:
H2-Kd [1] = molecular target: T1, H2-Kd (Mus musculus, UniProt P01902); conditions: result in words; cited from earlier work
H2-Kd [2] = molecular target: T1, H2-Kd; assay: In vitro pMHC binding assay; conditions: refolding with 10 μM peptide, 4°C, 72 hours; ELISA; result in words

T1 sequence (P01902 22-296 limits assumed): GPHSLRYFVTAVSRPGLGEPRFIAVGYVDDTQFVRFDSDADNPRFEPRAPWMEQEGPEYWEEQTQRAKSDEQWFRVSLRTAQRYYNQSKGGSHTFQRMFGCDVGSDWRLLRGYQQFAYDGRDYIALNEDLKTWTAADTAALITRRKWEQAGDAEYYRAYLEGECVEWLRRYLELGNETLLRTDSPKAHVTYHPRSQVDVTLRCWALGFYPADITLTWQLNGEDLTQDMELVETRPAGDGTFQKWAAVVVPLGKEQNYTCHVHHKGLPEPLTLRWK
T1 sequence (P61769 21-119 partner): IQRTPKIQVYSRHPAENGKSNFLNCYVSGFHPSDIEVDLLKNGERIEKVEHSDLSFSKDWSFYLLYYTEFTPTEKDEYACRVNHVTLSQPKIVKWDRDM

**Q.** With YIRPFETKVK as the sequence, how does the “In silico-predicted MHC binding” value (H2-Kd [1]) read?
**A.** The value was “poor in silico-predicted MHC binder”.

**Q.** What about the “In vitro binding affinity to H2-Kd” value (H2-Kd [2]) of the same sequence?
**A.** Its value is “significantly high”.

Source: article PMC10025090 (iScience, 2023)
